According to patent US6245758A, “Methods of use for peroxynitrite decomposition catalysts, pharmaceutical compositions therefor” (priority 1996, dated 2001):
Like-named read-outs stand apart in the source and are kept apart here.

Legend:
CuZnSOD = experiment: Inactivation of CuZnSOD by peroxynitrite (stopped flow superoxide dismutase activity)
Protocol: Stock solutions of bovine liver CuZnSOD (DDI Pharmaceuticals Inc., Mountain View CA) were prepared by dissolving -1.0 mg of enzyme in 10 mL of 50 mM potassium phosphate buffer at a pH=7.4. […] All kobs were the average of triplicate runs using a stopped flow spectrophotometer manufactured by Kinetic Instruments Inc. (Ann Arbor, Mich.) and was interfaced to a MAC IICX personal computer.
Inactivation of CuZn SOD by peroxynitrite.
Inactivation of peroxynitrite was performed by aloquating 1.0 mL of stock CuZn SOD solution into 50 mM potassium phosphate buffer pH=7.4 such that a final assay volume of 10 mL is achieved after addition of peroxynitrite and EDTA solutions. To these assay solution was added various amounts of peroxynitrite (25 mM stock solution) such that the final concentration of peroxynitrite in the assay varied from 0, 25, 50, 75 and 100 uM. After the addition of peroxynitrite, 100 uL of a 2.5 mM stock EDTA solution was added to each assay solution such that the final concentration of EDTA was 250 uM. Each solution was then assayed by stopped flow analysis for superoxide dismutase activity.

[1] = Stopped-flow kinetic analysis of catalytic decomposition of peroxynitrite by metal complexes; conditions: pH = 7.4, 22° C.
Protocol: To screen metal complexes for peroxynitrite decomposition catalytic activity of the present invention, peroxynitrite is prepared and isolated as its sodium salt by the reaction of acidic hydrogen peroxide with sodium nitrite followed by rapid quenching with NaOH as set out by Halfpenny and Robinson, in J. Chem. So., 1952, 928-938. Peroxynitrite has an absorbance maximum at 302 nm with an extinction coefficient of 1670 M^-1 cm^-1. Therefore, it is possible to directly observe the decomposition of peroxynitrite by stop-flow spectrophotometric analysis by monitoring the decomposition of the absorbance at 302 nm. That is, such observation of the decomposition of peroxynitrite at a rate accelerated over the natural decomposition rate with the addition of the metal complex identifies a compound of the present invention.
Kinetic measurements were made on an OLIS Rapid Scanning Stopped-Flow Spectrometer (On-Line Instrument Systems Inc., Bogart, Ga.)) using the OLISRSM-1000 Operating system for data acquisition and manipulation.
Thus, in a typical experiment the natural background decomposition rate of sodium peroxynitrite was determined as follows. A 24 mM stock solution of sodium peroxynitrite in 50 mM NaOH is load into the small volume syringe and 100 mM potassium phosphate pH=7.4 is charged into the large volume syringe of the stopped-flow spectrophotometer. All stopped -flow measurements were made at 22 ° C. Injection of the solutions into the sample compartment results in ~25 fold dilution of the stock sodium peroxynitrite. […] To test for catalytic peroxynitrite decomposition activity, the metal complex was dissolved in 100 mM potassium phosphate buffer pH=7.4 and loaded into the large syringe and the decomposition of peroxynitrite was monitored as described above. The catalytic rate constant (kcat M-1 sec^-1) for the complexes tested was determined by varying the complex concentration and plotting kobs vs [complex] Table 1. The kobs were obtained from averages of three stopped flow analysis at each catalyst concentration.

[2] = tested on: carrageenan-induced paw edema; experiment: Carrageenan-induced paw edema; assay type: in vivo, rat; conditions: 30 mg/kg i.v.
Text: Carrageenan-induced paw edema. The effects of peroxynitrite catalysts in vivo were initially tested on the carrageenan-induced paw edema. The choice of using this in vivo model of inflammation was based on the knowledge that 1) the inflammatory response is blocked by NOS inhibitors and 2) by superoxide dismutase (SOD). This indicates the participation of both NO and of O2-. Male Sprague Dawley rats were purchased from Harlan Sprague-Dawley (Indianapolis, Ind.). Male Sprague Dawley rats (175-200 g) received a subplantar injection in the right hind paw of carrageenan (0.1 ml of a 1% suspension in 0.85% saline). Paw volume was measured by a plethysmometer immediately before the injection of carrageenan and then at hourly intervals from 1 to 6 h. Edema was expressed as the increase in paw volume (in ml) measured after carrageenan injection compared to the pre-injection value for individual animals.

RAW 264.7 cells = experiment: Cell protection assay, Alamar Blue viability after peroxynitrite challenge; assay type: cell-based, murine
Protocol: FIG. 8: Comparison of Ni and Fe Catalyst Protection of RAW Cells from PN(peroxynitrite)-mediated Injury. RAW 264.7 cells were plated at approximately 2×10^5 per well of a 96-well plate. […] Each condition represents the mean of 4 wells ±sem.
FIG. 9: Protection from PN-mediated RAW Cell Injury by Fe Catalysts. Cells were treated with 500 micromolar PN in the presence or the absence of the following catalysts: FeTMPyP, FeTMPS, FeTPPS. Cell viability was monitored as described in the text and figure legends 1, 2 and 3. Values represent the mean of 4 determinations ±sem.
(§1) Protocol for Cell Protection Assays using Peroxynitrite Decomposition Catalysts: A cell viability assay was established to rapidly assess the efficacy of peroxynitrite(PN) catalysts in protecting cells from PN25 mediated injury and death. The peroxynitrite challenge consisted of a pulse of synthetic PN added exogenously to cells. In order to better assess the efficacy of PN catalysts in protecting cells from PN-mediated damage, a quantity of peroxynitrite(in 50 mM NaOH) determined to cause maximal injury(100%) was added as an exogenous pulse to each well of cells in the presence or absence of catalyst. The NaOH vehicle was not toxic by itself.
(§2) Cells(RAW 264.7 cells or P815 mastocytoma cells; American Type Culture Collection, Rockville, Md.) were plated to confluence on 96-well tissue culture plates. Each well is washed twice with Dulbecco's phosphate buffered saline(DPBS; GIBCO BRL, Grand Island, N.Y.) to remove protein and other serum components which might react with the exogenous peroxynitrite. To each well is then added 200 μl of DPBS. PN is next placed into separate wells at increasing concentrations and cell viability monitored. The dose at which maximal cell death is attained is then utilized for the catalyst protection assessment.
Phosphate-buffered saline (200 uL) containing increasing concentrations of catalyst is next placed into individual wells of cells. The maximal dose of PN is subsequently administered to all wells of cells. After 15 minutes, the medium is removed from each well and the cells are either allowed to recover overnight in Earles minimum essential medium without phenol red and supplemented with 10% fetal bovine serum or alternatively the plate of cells is assayed that day for mitochondrial integrity using the Alamar Blue viability assay(Alamar Biosciences, Inc.; Sacramento, Calif.). In either case, cells are incubated at 37° C. in 5% CO2.
Cell injury is measured as follows. Briefly, 10% Alamar Blue(v/v) in Earles MEM with 10% FBS is added to each well of cells for 1-2h. Cell metabolism of the dye generates a fluorescent product which is directly related to the number of viable cells. Moreover, the production of the fluorescent metabolite is linear for over 2 h. The amount of fluorescent product in 100 μl of conditioned medium from each well of cells is then measured with an IDEXX fluorescent plate reader (gain setting of 1%) at an emission wavelength of 575 nm after exciting at 545 nm. Viability is either given as absolute fluorescent units or as a percent of the value obtained for untreated cells(100%).

rat jejunum = experiment: Intestinal vascular permeability (radiolabelled albumin leakage) after endotoxin (LPS); assay type: in vivo; conditions: 30 mg/kg, i.v, 3 h after LPS; determined 1 h later
Protocol: FIG. 10 . Effects of FeTMPS, FeTMPyP or ZnTMPyP (30 mg/kg, i.v bolus) administered 3 h after challenge with E. coli lipopolysaccharide (LPS, 3 mg/kg, i.v bolus) on the increase in leakage of radio-labelled albumin (plasma extravasation, μl/g tissue) observed 1 h later (e.g 4 h after LPS challenge) in the rat jejunum. Results are shown as mean±s.e.m of 4-8 rats.
Intestinal vascular permeability was determined as the leakage into the jejunal tissue of [^125 I]-labelled bovine serum albumin ([^125 ]-BSA) administered intravenously (0.5 ml; 0.5 μCi) together with either LPS (3 mg/kg, serotype O111:B4) or isotonic saline. At 4 h after LPS administration, segments of jejunal tissue were ligated and removed. The intestinal tissues were rapidly washed, blotted dry and weighed. Blood (0.5 ml) was collected into tubes containing tri-sodium citrate (0.318% final concentration) and plasma prepared by centrifugation (10,000 g×10 min). The {^125 I]-BSA content in segments of whole tissue and in aliquots of plasma (100 μl) was determined in a gamma counter. The total content of plasma in the intestinal tissues was expressed as μl/g tissue. Changes in intravascular volume in the intestinal tissue was determined in an additional group of rats by administering ([^125 I]-BSA) intravenously 2 min before removal of the jejunum. The tissue and plasma content of radiolabel was determined and intravascular volume expressed as μl/g tissue. This value was substracted from that obtained in the plasma leakage studies to obtain a measure of the intestinal plasma albumin leakage. After LPS administration (4 h), there was a significant (P<0.01) increase in the plasma leakage (from 77±10 to 224±18 μl/g tissue, n=8).

[3] = Beckman et al. 1990, cited from earlier work
[4] = Natural background decomposition of peroxynitrite; assay type: physicochemical; conditions: 22 ° C, 100 mM potassium phosphate pH=7.4
Protocol: Thus, in a typical experiment the natural background decomposition rate of sodium peroxynitrite was determined as follows. A 24 mM stock solution of sodium peroxynitrite in 50 mM NaOH is load into the small volume syringe and 100 mM potassium phosphate pH=7.4 is charged into the large volume syringe of the stopped-flow spectrophotometer. All stopped -flow measurements were made at 22 ° C. Injection of the solutions into the sample compartment results in ~25 fold dilution of the stock sodium peroxynitrite. […] To test for catalytic peroxynitrite decomposition activity, the metal complex was dissolved in 100 mM potassium phosphate buffer pH=7.4 and loaded into the large syringe and the decomposition of peroxynitrite was monitored as described above. The catalytic rate constant (kcat M-1 sec^-1) for the complexes tested was determined by varying the complex concentration and plotting kobs vs [complex] […] The kobs were obtained from averages of three stopped flow analysis at each catalyst concentration.

RAW and P815 cells = experiment: Comparison of increasing PN doses on RAW and P815 cells; assay type: cell-based, murine; conditions: data not shown
Protocol: as §1
as §2, with “To each well is then added 200 μl of DPBS.” left out, “The dose at which maximal cell death is attained is then utilized for the catalyst protection assessment.” left out
Cell injury is measured as follows. […] The amount of fluorescent product in 100 μl of conditioned medium from each well of cells is then measured with an IDEXX fluorescent plate reader (gain setting of 1%) at an emission wavelength of 575 nm after exciting at 545 nm. […]

[5] = tested on: human dermal microvascular endothelial cells (HDME cells); experiment: Endothelial cell injury assay (51Cr release), authentic peroxynitrite; assay type: cell-based; conditions: 45 min, peroxynitrite 0-800 uM
Protocol: FIG. 5: Peroxynitrite-mediated human microvascular endothelial cell injury. Authentic peroxynitrite was overlaid directly onto to ^51 Cr-labeled HMDE cells grown in 96-well cell culture plates. After 45 min the amount of specific cell injury was determined and correlated to peroxynitrite concentration by least squares regression line. Values represent the average of three replicates +/-SEM.
FIG. 6: Peroxynitrite catalysts, Fe(TMPyP) (triangle) and Ni(II)dienoN4)PF6 (circle) were added to HDME cells in the cell injury assay immediately before the addition of authentic peroxynitrite. After 45 min, the amount of specific cell injury was assessed by the amount of radiolabel released into the medium. Values represent the average of three replicas +/-SEM. *p<0.01 vs. 0 uM control by Dunnett's t Test.
[…]: Human recombinant tumor necrosis factor-alpha (TNF-a) was obtained from Genzyme Corporation, Cambridge, MA. Human recombinant complement C5a and L-arginine (L-arg) was purchased from Sigma Chemical Company, St. Louis, Mo. Authentic peroxynitrite in 50 mM NaOH was prepared as described above. […]
Endothelial Cell Injury Assays: The cytotoxic effects of stimulated neutrophils or peroxynitrite on endothelial cells was determined using a ^51 Cr-release assay as described by Moldow (Moldow et. al. Methods Enzymol., 105, 378-385, [1984]). […]

## O=C(O)CN(CCN(CC(=O)O)CC(=O)O)CC(=O)O [EDTA]
CuZnSOD; 250 uM EDTA alone
  CuZnSOD activity in control reaction: no decrease in CuZnSOD activity

## C[n+]1ccc(-c2c3nc(c(-c4cc[n+](C)cc4)c4ccc([nH]4)c(-c4cc[n+](C)cc4)c4nc(c(-c5cc[n+](C)cc5)c5ccc2[nH]5)C=C4)C=C3)cc1.[Zn+2] [ZnTMPyP, reference compound]
[1]
  kcat, catalytic rate constant for the decomposition of sodium peroxynitrite: Inactive
[2]
  inhibition of edema formation: failed to inhibit edema formation
RAW 264.7 cells; PN 500 micromolar, RAW cells, FIG. 9 (H2 TMPyP and ZnTMPyP: data not shown)
  protection of cells from PN-mediated injury: relatively ineffective
Rat jejunum
  radiolabelled albumin leakage: did not inhibit radiolabelled albumin leakage

## O=NOO [peroxynitrite, sodium peroxynitrite]
[3]; 37° C, pH=7.4
  t1/2 of decomposition of sodium peroxynitrite: 1.9 s
[3]; pH 7.4, 37° C
  observed rate for the decomposition of peroxynitrite: 3.6×10^-1 sec-i
[4]
  kobs of decomposition of sodium peroxynitrite: 1.39×10^-1±0.15 sec^-1
  t1/2 of decomposition of sodium peroxynitrite: 5.2 see
RAW 264.7 cells; RAW 264.7, PN dose of FIG. 8 experiment
  decrease in cell viability caused by PN: 50%
RAW and P815 cells
  differential susceptibility of RAW and P815 cells to peroxynitrite-mediated injury: no evidence for a differential susceptibility to peroxynitrite-mediated injury
CuZnSOD; peroxynitrite 0-100 uM
  inactivation of CuZnSOD: inactivates CuZnSOD enzyme in a concentration dependant manner
[5]
  endothelial cell injury by peroxynitrite: dose dependent increase in cell injury
